Data: publication PMC6344987 (BMC Complementary and Alternative Medicine, 2019)

Columns and labels:
CYP3A4 = assay: P450-Glo CYP3A4 (Luciferin-IPA) activity in primary isolated rat hepatocytes; assay type: in vitro ADME; settings: n = 6; for CYP3A4 activity relative to untreated isolated hepatocytes: substance alone, ketoconazole 1, warfarin 3, pomegranate peel extract 120, ellagic acid 48, guava leaves extract 294, quercetin 15 μg/ml; for CYP3A4 activity relative to untreated isolated hepatocytes, in combination with warfarin: combined with warfarin 3 μg/ml, pomegranate peel extract 120, ellagic acid 48, guava leaves extract 294, quercetin 15 μg/ml
Method: (§1) The liver of anaesthetized rat with inhaled isoflurane were perfused with collagenase enzyme as described by. Liver cells were dispersed gently in a sterile petri dish, and prepared for hepatocyte culture as described elsewhere. Cell were plated at a final concentration of 50,000 cell/100 μl and seeded in 96 well plates (100 μl). Cells were left to recover and grow overnight prior to the day of experiment.
Doses of chemicals selected for in vitro testing on primary cultured hepatocyte mitochondrial activity were estimated after literature review and preliminary work in order to obtain the IC50 values of tested compounds (data not shown). […] Directly after the addition of treatments, 25 μl of the lumenogenic substrate (Luciferin-H, Luciferin-ME or Luciferin-IPA) was added to each well. The plates were incubated at 37 °C for appropriate time according to manufacture protocol (Promega, USA). Later, 25 μl from culture media from each well was transferred into 96-well opaque white luminometer plate and equal amount of Luciferin detection reagent was added to each well to initiate the luminescent reaction. The reaction was allowed for 20 min at room temperature away from light. Finally, luminescence was read using GloMax®-Multi Detection System (Promega, USA).

Sprague Dawley rats = assay: In vivo pharmacodynamic study: prothrombin time (PT) and INR in rat plasma after five days of oral treatment; settings: oral daily for five days, WF 0.5 mg/kg, PPE 100 mg/kg, EA 40 mg/kg, GvL 250 mg/kg, QUE 12.75 mg/kg, mean ± SD (n = 8); for INR: calculated from PT; for PT: plasma on fifth day
Method: Adult Sprague Dawley laboratory rats were supplied by the Animal Facility of the University of […], Jordan). […] Rats were fasted overnight with free access to water. All experiments involving animals were conducted according to the institutional guidelines for the use of laboratory animals, which follows the guidelines of the Federation of European Laboratory Animal Science Associations (FELASA). The used animals were euthanized with cervical dislocation at the end of each experiment. The study protocol was revised and approved by the Committee of Scientific Research of the University of Petra (Approval number: 4-2016/2017, Date: 22/06/2017). The rats were weighed and randomized into ten groups (n = 8) and acclimatized for ten days before the experiment. Oral stainless steel gavage needle (Harvard Apparatus, Kent, UK) was used for oral administration of the treatments. Groups were treated daily for five days as following; group 1 received oral 0.5% CMC solution and served as a negative control. […] Group 3 received 100 mg/kg pomegranate peel extract suspension. […] Group 7 received 250 mg/kg guava leaves extract suspension. […] Plasma was separated, transferred directly into labeled Eppendorf tubes for PT and INR analysis. Reconstituted thromboplastin was added to 100 μl of each plasma sample in pre-warmed cuvette at 37 °C. […] INR was calculated from the detected PT according to the manufacturer's instructions.

CYP2C9 = assay: P450-Glo CYP2C9 (Luciferin-H) activity in primary isolated rat hepatocytes; assay type: in vitro ADME; settings: n = 6; for CYP2C9 activity relative to untreated isolated hepatocytes, in combination with warfarin: combined with warfarin 3 μg/ml, pomegranate peel extract 120, ellagic acid 48, guava leaves extract 294, quercetin 15 μg/ml; for CYP2C9 activity relative to untreated isolated hepatocytes: substance alone, sulfamethoxazole 130, warfarin 3, pomegranate peel extract 120, ellagic acid 48, guava leaves extract 294, quercetin 15 μg/ml
Method: as §1
(§2) Directly after the addition of treatments, 25 μl of the lumenogenic substrate (Luciferin-H, Luciferin-ME or Luciferin-IPA) was added to each well. The plates were incubated at 37 °C for appropriate time according to manufacture protocol (Promega, USA). Later, 25 μl from culture media from each well was transferred into 96-well opaque white luminometer plate and equal amount of Luciferin detection reagent was added to each well to initiate the luminescent reaction. The reaction was allowed for 20 min at room temperature away from light. Finally, luminescence was read using GloMax®-Multi Detection System (Promega, USA).

CYP2C8 = assay: P450-Glo CYP2C8 (Luciferin-ME) activity in primary isolated rat hepatocytes; assay type: in vitro ADME; settings: n = 6; for CYP2C8 activity relative to untreated isolated hepatocytes, in combination with warfarin: combined with warfarin 3 μg/ml, pomegranate peel extract 120, ellagic acid 48, guava leaves extract 294, quercetin 15 μg/ml
Method: as §1, §2

in vivo = settings: rat, po, 0.5 mg/kg
Method: On the fifth day, blood samples were collected from the 18 h fasted rats at different time intervals namely; at zero time, 0.5, 1, 2, 3, 4, 6, 8, 12, 24, 48 and 72 h from all groups and drawn into EDTA micro tubes. The micro tubes were centrifuged at 7000 RPM for 10 min. Plasma was separated, transferred directly into labeled Eppendorf tubes and stored at − 20 °C until requested for HPLC analysis.
Reversed-phase high-performance liquid chromatography (HPLC) analysis was used to separate samples using Finnigan surveyor system (Thermo Electron Corporation, San Jose, California, USA) on a hypersil™ BDS C-18 Column (150 mm × 4.6 mm, 5 μm) (Thermo Electron Corporation, San Jose, California, USA) and quantified using ultraviolet detection at 310 nm (UV-VIS Plus Detector). The mobile phase was a mixture of 60% acetonitrile HPLC grade and 40% water containing 1 ml triethylamine/l and phosphoric acid (pH 3.0) with a flow rate of 1.0 ml/min (LC pump plus) using 20 μl injection volume (Autosampler Plus). Metronidazole benzoate was used as an internal standard. ChromQuest 4.2.34 chromatography data system was implemented for data acquisition and handling. […] Consequently, different concentrations of working solutions were prepared for plasma spiking by mixing 25 μl of working solutions in 975 μl of plasma (Fig. 1, Table 1). […] The supernatant was then analyzed using an in house validated HPLC method at the Faculty of Pharmacy and Medical Sciences, University of Petra, Amman, Jordan (MSc thesis, Farah Al-Mamoori, 2016, University of Petra).
The calculated pharmacokinetic parameters presented in the current study were maximum plasma concentration (Cmax), area under the curve (AUC), area under the first moment curve (AUMC), mean residence time (MRT), half-life (t0.5), clearance (CL), volume of distribution (Vz), time at which Cmax was observed (Tmax) and elimination rate constant (Kel).

CC(=O)N1CCN(c2ccc(OCC3COC(Cn4ccnc4)(c4ccc(Cl)cc4Cl)O3)cc2)CC1 (centres unmarked) [ketoconazole, reference compound]
CYP3A4 activity relative to untreated isolated hepatocytes (CYP3A4): significantly reduced

O=c1oc2c(O)c(O)cc3c(=O)oc4c(O)c(O)cc1c4c23 [EA, ellagic acid]
INR (Sprague Dawley rats): 1.43 ± 0.10 | PT (Sprague Dawley rats): 23 ± 1.31 s | CYP2C9 activity relative to untreated isolated hepatocytes, in combination with warfarin (CYP2C9): significantly inhibited | CYP2C9 activity relative to untreated isolated hepatocytes (CYP2C9): significant inhibition | CYP2C8 activity relative to untreated isolated hepatocytes, in combination with warfarin (CYP2C8): significantly inhibited | CYP3A4 activity relative to untreated isolated hepatocytes, in combination with warfarin (CYP3A4): significantly inhibited

O=c1c(O)c(-c2ccc(O)c(O)c2)oc2cc(O)cc(O)c12 [QUE, quercetin hydrate]
INR (Sprague Dawley rats): 1.39 ± 0.09 | PT (Sprague Dawley rats): 22.5 ± 1.20 s | CYP2C9 activity relative to untreated isolated hepatocytes, in combination with warfarin (CYP2C9): inhibited | CYP2C9 activity relative to untreated isolated hepatocytes (CYP2C9): inhibited | CYP2C8 activity relative to untreated isolated hepatocytes, in combination with warfarin (CYP2C8): inhibited | CYP2C8 activity relative to untreated isolated hepatocytes (CYP2C8; substance alone, trimethoprim 30, warfarin 3, pomegranate peel extract 120, ellagic acid 48, guava leaves extract 294, quercetin 15 μg/ml): inhibited | CYP3A4 activity relative to untreated isolated hepatocytes, in combination with warfarin (CYP3A4): inhibited | CYP3A4 activity relative to untreated isolated hepatocytes (CYP3A4): inhibited

CC(=O)CC(c1ccccc1)c1c(O)c2ccccc2oc1=O (centres unmarked) [WF, Warfarin]
INR (Sprague Dawley rats): 19 ± 1 | PT (Sprague Dawley rats): 191 ± 12 s | AUC (in vivo; Sprague-Dawley): 107 µg·h/mL | Cmax (in vivo; Sprague-Dawley): 3670 ± 663 ng/mL | MRT (in vivo; Sprague-Dawley): 25 ± 5 h | Tmax (in vivo; Sprague-Dawley): 6 ± 8 h | Vd/F (in vivo; Sprague-Dawley): 0.035 ± 0.015 L | CL/F (in vivo): 1.45 ± 0.5 mL/h
